system: rabbit brush border membrane vesicles (BBMV); experiment: inhibition of cholesterol uptake in rabbit brush border membrane vesicles (BBMV); type: biochemical; settings: applied in donor SUV (9 mol %); scavenger receptor-mediated uptake of radiolabelled cholesterol ester from donor particles into BBMV bilayer
Experimental: The compounds of the invention and ezetimibe (commercially obtained or prepared according to Wu, G. Z. et al., J. Org. Chem. 1999) together with the glucuronide (the metabolite of ezetimibe, prepared according to Vaccaro, W. D.; Davis, H. R. Bioorg. Med. Chem. Lett. 1998, 8, 313-318) as appropriate reference compounds were evaluated by well-established methods to determine their inhibition of cholesterol uptake in rabbit brush border membrane vesicles (BBMV) (Table 1). Briefly, the scavenger receptor-mediated uptake of radiolabelled cholesterol ester from the loaded donor particles into the BBMV bilayer was measured in the presence of various compounds of the invention and appropriate reference compounds (Hauser, H. et al., Biochemistry 1998, 37, 17843-17850; Werder, M. et al., Biochemistry 2001, 40, 11643-11650; Boffelli, D. et al., FEBS Lett. 1997, 411, 7-11.)

SMILES | Inhibition in (%)
O=C1[C@H](CC[C@H](O)c2ccc(F)cc2)[C@@H](c2ccc(O)cc2)N1c1ccc(F)cc1 [Ezetimibe, reference compound] | 16 ± 4
O=C(O)[C@H]1O[C@@H](Oc2ccc([C@@H]3[C@@H](CC[C@H](O)c4ccc(F)cc4)C(=O)N3c3ccc(F)cc3)cc2)[C@H](O)[C@@H](O)[C@@H]1O [Glucuronide, reference compound] | 19 ± 4
COC1OC(CS(=O)(=O)Oc2ccc([C@@H]3[C@@H](CC[C@H](O)c4ccc(F)cc4)CN3c3ccc(F)cc3)cc2)C(O)C(O)C1O (some centres unmarked) [IX] | 27 ± 4
COC1OC(CS(=O)(=O)Oc2ccc([C@@H]3[C@@H](CC[C@H](O)c4ccc(F)cc4)C(=O)N3c3ccc(F)cc3)cc2)C(O)C(O)C1O (some centres unmarked) [IXb] | 20 ± 5
O=C1[C@H](CC[C@H](O)c2ccc(F)cc2)[C@@H](c2ccc(OCC3OC(CO)C(O)C(O)C3O)cc2)N1c1ccc(F)cc1 (some centres unmarked) [VIII] | 15 ± 3
CS(=O)(=O)Oc1ccc([C@@H]2[C@@H](CC[C@H](O)c3ccc(F)cc3)CN2c2ccc(F)cc2)cc1 [VII] | 22 ± 2
CS(=O)(=O)Oc1ccc([C@@H]2[C@@H](CC[C@H](O)c3ccc(F)cc3)C(=O)N2c2ccc(F)cc2)cc1 [VI] | 30 ± 4
O=C1[C@H](CC[C@H](O)c2ccc(F)cc2)[C@@H](c2ccc(OS(=O)(=O)c3ccccc3)cc2)N1c1ccc(F)cc1 [XIV] | 26 ± 3
O=C1[C@H](CC[C@H](O)c2ccc(F)cc2)[C@@H](c2ccc(OS(=O)(=O)CC3OC(CO)C(OC4OC(CO)C(O)C(O)C4O)C(O)C3O)cc2)N1c1ccc(F)cc1 (some centres unmarked) [XVIII] | 41 ± 4
O=C1[C@H](CC[C@H](O)c2ccc(F)cc2)[C@@H](c2ccc(OCC3OC(CO)C(OC4OC(CO)C(O)C(O)C4O)C(O)C3O)cc2)N1c1ccc(F)cc1 (some centres unmarked) [XVII] | 28 ± 4
O=C(O)c1cc(S(=O)(=O)Oc2ccc([C@@H]3[C@@H](CC[C@H](O)c4ccc(F)cc4)C(=O)N3c3ccc(F)cc3)cc2)ccc1O [XVI] | 21 ± 5
O=S(=O)(Oc1ccc([C@@H]2[C@@H](CC[C@H](O)c3ccc(F)cc3)CN2c2ccc(F)cc2)cc1)c1ccccc1 [XV] | 19 ± 3
O=C1O[C@H](CC[C@H](O)c2ccc(F)cc2)[C@@H](c2ccc(O)cc2)N1c1ccc(F)cc1 [XXI] | 19 ± 2
O=C1[C@H](CC[C@H](O)c2ccc(F)cc2)[C@@H](c2ccc(OS(=O)(=O)CC3OC(CO)C(O)C(O)C3O)cc2)N1c1ccc(F)cc1 (some centres unmarked) [X] | 15 ± 3

— US7544667B2, “Hypocholesterolemic compounds” (Lipideon Biotechnology AG, priority 2003, dated 2009)
